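Grown in 96-well plates, cells were treated for 48 hours with each compound at five concentrations. Insufficient inhibition: endpoint recorded as highest concentration tested. GI50: concentration for 50% inhibition of growth. TGI: total growth inhibition.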
Key:
Test in all cases: NCI tumour cell line growth inhibition, 48 h
LXFL 529 NSCLC = test system: LXFL 529 NSCLC
RXF 393 renal = test system: RXF 393 renal
PC-3 prostate = test system: PC-3 prostate
OVCAR-3 ovarian = test system: OVCAR-3 ovarian
NCI/ADR-RES ovarian = test system: NCI/ADR-RES ovarian
MALME-3M melanoma = test system: MALME-3M melanoma
RXF-631 renal = test system: RXF-631 renal
MOLT-4 leukemia = test system: MOLT-4 leukemia
SK-MEL-28 melanoma = test system: SK-MEL-28 melanoma
XF 498 CNS = test system: XF 498 CNS
HT29 colon = test system: HT29 colon
IGROV1 ovarian = test system: IGROV1 ovarian
COLO 205 colon = test system: COLO 205 colon
HOP-18 NSCLC = test system: HOP-18 NSCLC
NCI-H23 lung = test system: NCI-H23 lung
786-0 renal = test system: 786-0 renal
OVCAR-5 ovarian = test system: OVCAR-5 ovarian
HCT-116 colon = test system: HCT-116 colon
DMS 273 small cell lung = test system: DMS 273 small cell lung
EKVX NSCLC = test system: EKVX NSCLC
SF-295 CNS = test system: SF-295 CNS
MDA-MB-435 = test system: MDA-MB-435
UACC-257 melanoma = test system: UACC-257 melanoma
CAKI-1 renal = test system: CAKI-1 renal
CCRF-CEM leukemia = test system: CCRF-CEM leukemia
LOX IMVI melanoma = test system: LOX IMVI melanoma
OVCAR-4 ovarian = test system: OVCAR-4 ovarian
A498 renal = test system: A498 renal
M14 melanoma = test system: M14 melanoma
SNB-75 CNS = test system: SNB-75 CNS
A549 NSCLC = test system: A549 NSCLC
SR leukemia = test system: SR leukemia
SK-MEL-2 melanoma = test system: SK-MEL-2 melanoma
MCF7 breast = test system: MCF7 breast
HOP-92 NSCLC = test system: HOP-92 NSCLC
SF-268 CNS = test system: SF-268 CNS
UO-31 renal = test system: UO-31 renal
M19-MEL melanoma = test system: M19-MEL melanoma
NCI-H460 lung = test system: NCI-H460 lung
SNB-19 CNS = test system: SNB-19 CNS
BT-549 breast = test system: BT-549 breast
HS 578T breast = test system: HS 578T breast
U251 CNS = test system: U251 CNS
DMS 114 small cell lung = test system: DMS 114 small cell lung
HOP-62 NSCLC = test system: HOP-62 NSCLC
T-47D breast = test system: T-47D breast
ACHN renal = test system: ACHN renal
SN12C renal = test system: SN12C renal
KM20L2 colon = test system: KM20L2 colon
SF-539 CNS = test system: SF-539 CNS
NCI-H226 lung = test system: NCI-H226 lung
OVCAR-8 ovarian = test system: OVCAR-8 ovarian
KM12 colon = test system: KM12 colon
HCC-2998 colon = test system: HCC-2998 colon
DLD-1 colon = test system: DLD-1 colon
K-562 leukemia = test system: K-562 leukemia
SK-MEL-5 melanoma = test system: SK-MEL-5 melanoma
RPMI-8226 leukemia = test system: RPMI-8226 leukemia
SNB-78 CNS = test system: SNB-78 CNS
TK-10 renal = test system: TK-10 renal
SK-OV-3 ovarian = test system: SK-OV-3 ovarian
HL-60(TB) leukemia = test system: HL-60(TB) leukemia
UACC-62 melanoma = test system: UACC-62 melanoma
SW-620 colon = test system: SW-620 colon
MDA-MB-231 breast = test system: MDA-MB-231 breast
NCI-H522 lung = test system: NCI-H522 lung
DU-145 prostate = test system: DU-145 prostate
HCT-15 colon = test system: HCT-15 colon

Oc1ccc2c(c1)OCC1(O)Cc3cc(O)c(O)cc3C21 (configuration not stated) was tested, and the TGI (LXFL 529 NSCLC) was 34 µM, the TGI (RXF 393 renal) was 29.7 µM and the GI50 (PC-3 prostate) was 18.1 µM. It also gave a TGI (PC-3 prostate) of 39.4 µM, a TGI (OVCAR-3 ovarian) of 30 µM and a GI50 (NCI/ADR-RES ovarian) of 29.6 µM. It also gave a TGI (NCI/ADR-RES ovarian) of 97.9 µM, a TGI (MALME-3M melanoma) of 32.4 µM and a TGI (RXF-631 renal) greater than 77.3 µM. For the same compound, the TGI (MOLT-4 leukemia) was 72.9 µM, the TGI (SK-MEL-28 melanoma) was 32.2 µM and the TGI (XF 498 CNS) was 28.8 µM. The TGI (HT29 colon) was 46.5 µM, the TGI (IGROV1 ovarian) was greater than 73.6 µM and the TGI (COLO 205 colon) was 45.4 µM. For the same compound, the TGI (HOP-18 NSCLC) was 32.3 µM, the TGI (NCI-H23 lung) was 33.4 µM and the TGI (786-0 renal) was 34.9 µM. The TGI (OVCAR-5 ovarian) was 59.7 µM, the TGI (HCT-116 colon) was 42.4 µM and the TGI (DMS 273 small cell lung) was greater than 100 µM. For the same compound, the TGI (EKVX NSCLC) was 45.9 µM, the TGI (SF-295 CNS) was greater than 68.3 µM and the GI50 (MDA-MB-435) was 14.8 µM. It also gave a TGI (MDA-MB-435) of 28.1 µM, a TGI (UACC-257 melanoma) of 34.4 µM and a TGI (CAKI-1 renal) of 32.8 µM. It also gave a TGI (CCRF-CEM leukemia) of 82.8 µM, a TGI (LOX IMVI melanoma) of 37.2 µM and a TGI (OVCAR-4 ovarian) of 35.3 µM. For the same compound, the TGI (A498 renal) was 39 µM, the TGI (M14 melanoma) was 36.2 µM and the TGI (SNB-75 CNS) was 67.8 µM. It also gave a TGI (A549 NSCLC) greater than 74.6 µM, a TGI (SR leukemia) of 99.3 µM and a TGI (SK-MEL-2 melanoma) of 62.2 µM. The GI50 (MCF7 breast) was 18.4 µM, the TGI (MCF7 breast) was 36 µM and the TGI (HOP-92 NSCLC) was 37.6 µM. The TGI (SF-268 CNS) was greater than 68.2 µM, the TGI (UO-31 renal) was greater than 100 µM and the TGI (M19-MEL melanoma) was greater than 86 µM. The TGI (NCI-H460 lung) was 37.2 µM, the TGI (SNB-19 CNS) was 73 µM and the GI50 (BT-549 breast) was 14.8 µM. For the same compound, the TGI (BT-549 breast) was 28 µM, the GI50 (HS 578T breast) was 20.4 µM and the TGI (HS 578T breast) was 46.9 µM. The TGI (U251 CNS) was 39.9 µM, the TGI (DMS 114 small cell lung) was 73.5 µM and the TGI (HOP-62 NSCLC) was greater than 73.6 µM. It also gave a GI50 (T-47D breast) of 19.6 µM, a TGI (T-47D breast) of 54.4 µM and a TGI (ACHN renal) of 32.7 µM. The TGI (SN12C renal) was 51.1 µM, the TGI (KM20L2 colon) was greater than 63 µM and the TGI (SF-539 CNS) was 36.8 µM. The TGI (NCI-H226 lung) was greater than 65.2 µM, the TGI (OVCAR-8 ovarian) was 44.2 µM and the TGI (KM12 colon) was 69.2 µM. It also gave a TGI (HCC-2998 colon) of 36 µM, a TGI (DLD-1 colon) of 33.9 µM and a TGI (K-562 leukemia) greater than 82.6 µM. For the same compound, the TGI (SK-MEL-5 melanoma) was 34.2 µM, the TGI (RPMI-8226 leukemia) was 85.1 µM and the TGI (SNB-78 CNS) was 20 µM. The TGI (TK-10 renal) was 31.2 µM, the TGI (SK-OV-3 ovarian) was greater than 79.5 µM and the TGI (HL-60(TB) leukemia) was 78.3 µM. It also gave a TGI (UACC-62 melanoma) of 41.9 µM, a TGI (SW-620 colon) of 40.5 µM and a GI50 (MDA-MB-231 breast) of 13 µM. It also gave a TGI (MDA-MB-231 breast) of 26 µM, a TGI (NCI-H522 lung) of 46.7 µM and a GI50 (DU-145 prostate) of 10.7 µM. It also gave a TGI (DU-145 prostate) of 22.5 µM and a TGI (HCT-15 colon) of 44.2 µM.

Reference: PubChem BioAssay (NCI)
